Measured values as given in patent EP4061322B1 (Institut des Sciences et Industries du Vivant et de …, priority 2019, dated 2021).
pIC50: −log10 of the molar value. Read-outs that look alike come from different tables or passages of the source.

Tests used:
[1] = UV-Vis absorption spectrum (anti-UVA and blue light properties); format: physicochemical; design: λmax: unit not given here
Excerpt: Un spectre UV-Vis a été réalisé dans l'éthanol à 10^-5 mol/L pour les composés 1 à 7, qui sont des dérivés furaniques de l'acide de Medrum. L'Avobenzone, une molécule très largement utilisée comme filtre UVA dans les crèmes solaires, a été utilisée en tant que référence.
Cette méthodologie a été employée pour évaluer les propriétés anti-UV des composés 8 à 11, qui sont des dérivés phénoliques de l'acide de Medrum, des composés 12 à 15 qui sont des dérivés pyrroliques de l'acide de Meldrum, des composés 16 à 18 qui sont des dérivés vinylphénol de l'acide de Meldrum, le composé 19 qui est un dérivé vinylfurane de l'acide de Meldrum.

[2] = Photostability under UV exposure; format: physicochemical; conditions: for A (t=0 min): absorbance before UV exposure
Excerpt: La stabilité des composés 1 à 7 aux UV a été étudiée par soumission à une exposition (λ : 300 nm, P : 8.32 W/m^2) pendant une heure.
L'Avobenzone a été utilisée comme molécule de référence. Cette molécule est connue pour être […] sous exposition UV, ce qui n'est pas du tout le cas d'autres composés bio-sourcés.
La photostabilité des composés 8 à 11 a également été étudiée, de manière identique au test appliqué aux composés 1 à 7. Les résultats obtenus sont présentés dans le Tableau 2. […] Cette méthodologie a été appliquée à l'ensemble des molécules décrites ci-dessus. Tableau 2 : Stabilité des composés 8 à 11 soumis à une exposition aux UV.

[3] = Antioxidant properties (IC50 compared with BHA and BHT); format: biochemical; conditions: for capacité antioxydante: result in words
Excerpt: Les propriétés anti-oxydantes des composés 8 à 11 ont été évaluées par comparaison de leur IC50 avec celles de deux molécules de référence que sont la BHA et le BHT. Ces deux molécules sont très largement utilisées dans les formulations cosmétiques bien qu'elles soient controversées pour leur effet potentiellement cancérigène.

[4] = molecular target: T1, PXR (pregnane X receptor) (Homo sapiens, UniProt O75469); experiment: Endocrine system: receptor activity in presence of compound and reference molecule (antagonist effect); format: cell-based; conditions: Figure 9; with reference molecule; even at the highest concentrations
T1 sequence (O75469 1-434): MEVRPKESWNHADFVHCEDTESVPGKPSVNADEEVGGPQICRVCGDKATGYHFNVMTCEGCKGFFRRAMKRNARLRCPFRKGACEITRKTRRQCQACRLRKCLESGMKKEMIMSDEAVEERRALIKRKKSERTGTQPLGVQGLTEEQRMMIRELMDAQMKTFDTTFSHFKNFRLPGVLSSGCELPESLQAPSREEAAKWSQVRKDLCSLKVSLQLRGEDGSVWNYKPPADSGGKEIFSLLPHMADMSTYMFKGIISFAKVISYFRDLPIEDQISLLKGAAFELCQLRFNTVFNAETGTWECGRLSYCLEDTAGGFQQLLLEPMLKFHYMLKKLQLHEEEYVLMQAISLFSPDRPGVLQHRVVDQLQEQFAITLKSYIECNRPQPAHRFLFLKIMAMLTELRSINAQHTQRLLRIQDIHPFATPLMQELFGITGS
Excerpt: (§1) L'effet des composés 1 et 4 sur le système endocrinien a été évalué pour leurs propriétés agonistes et antagonistes sur différents récepteurs : ERα (récepteur œstrogène alpha), AR (récepteur des androgènes) et PXR (pregnane X receptor). Un premier test consiste à étudier l'activité des récepteurs en présence du composé 1 ou 4 (effet agoniste). […] Un second test vise à l'étude de l'activité des récepteurs en présence du composé 1 ou 4 et d'une molécule de référence pour chaque récepteur (effet antagoniste).

[5] = molecular target: T2, ERα (récepteur œstrogène alpha) (Homo sapiens, UniProt P03372); experiment: as above; format: cell-based; conditions: Figure 7; with reference molecule; even at the highest concentrations
T2 sequence (P03372 1-595): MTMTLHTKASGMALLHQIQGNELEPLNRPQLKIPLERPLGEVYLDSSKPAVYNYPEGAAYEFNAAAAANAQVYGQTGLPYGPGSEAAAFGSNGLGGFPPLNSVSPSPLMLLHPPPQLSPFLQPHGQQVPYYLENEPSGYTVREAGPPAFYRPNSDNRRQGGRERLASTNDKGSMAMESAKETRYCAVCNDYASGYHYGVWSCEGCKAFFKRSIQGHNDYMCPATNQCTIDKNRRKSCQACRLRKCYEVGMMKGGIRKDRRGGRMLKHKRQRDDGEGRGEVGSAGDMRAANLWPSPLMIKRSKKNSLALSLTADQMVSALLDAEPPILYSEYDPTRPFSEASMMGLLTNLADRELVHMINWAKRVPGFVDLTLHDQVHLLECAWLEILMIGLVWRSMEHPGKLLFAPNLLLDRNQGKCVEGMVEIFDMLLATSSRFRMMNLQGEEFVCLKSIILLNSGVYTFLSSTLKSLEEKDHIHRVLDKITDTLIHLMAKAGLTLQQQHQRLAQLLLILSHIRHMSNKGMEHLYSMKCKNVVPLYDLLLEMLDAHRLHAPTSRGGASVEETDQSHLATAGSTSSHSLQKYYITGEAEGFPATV
Excerpt: as §1

[6] = molecular target: T3, AR (récepteur des androgènes) (Homo sapiens, UniProt P10275); experiment: as above; format: cell-based; conditions: Figure 8; with reference molecule; even at the highest concentrations
T3 sequence (P10275 1-920): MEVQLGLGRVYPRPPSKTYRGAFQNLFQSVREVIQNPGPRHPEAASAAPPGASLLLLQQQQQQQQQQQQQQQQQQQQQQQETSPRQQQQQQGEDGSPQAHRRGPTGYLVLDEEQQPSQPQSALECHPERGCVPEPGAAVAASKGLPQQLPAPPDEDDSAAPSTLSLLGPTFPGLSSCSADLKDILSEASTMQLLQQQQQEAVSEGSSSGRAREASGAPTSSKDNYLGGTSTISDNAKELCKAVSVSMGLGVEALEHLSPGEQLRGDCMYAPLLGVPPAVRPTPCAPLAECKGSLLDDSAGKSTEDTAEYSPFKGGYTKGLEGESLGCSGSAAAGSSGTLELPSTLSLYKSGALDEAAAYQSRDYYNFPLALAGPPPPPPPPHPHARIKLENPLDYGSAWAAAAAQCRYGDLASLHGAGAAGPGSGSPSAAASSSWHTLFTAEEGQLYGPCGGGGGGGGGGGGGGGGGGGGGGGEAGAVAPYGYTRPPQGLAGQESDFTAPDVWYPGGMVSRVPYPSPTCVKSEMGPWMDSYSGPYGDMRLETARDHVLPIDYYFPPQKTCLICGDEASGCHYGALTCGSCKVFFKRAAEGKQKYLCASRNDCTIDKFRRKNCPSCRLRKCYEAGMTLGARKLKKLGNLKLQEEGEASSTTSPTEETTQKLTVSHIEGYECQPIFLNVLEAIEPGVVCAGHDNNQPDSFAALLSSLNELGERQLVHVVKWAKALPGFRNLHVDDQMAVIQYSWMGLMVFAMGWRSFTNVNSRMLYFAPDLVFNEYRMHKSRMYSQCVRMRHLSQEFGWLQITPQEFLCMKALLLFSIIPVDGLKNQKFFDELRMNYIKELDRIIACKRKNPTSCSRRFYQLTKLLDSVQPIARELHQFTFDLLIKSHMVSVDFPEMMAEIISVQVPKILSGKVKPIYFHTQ
Excerpt: as §1

[7] = molecular target: T1, PXR (pregnane X receptor); experiment: Endocrine system: receptor activity in presence of compound (agonist effect); format: cell-based; conditions: Figure 6, C = 10 µM; even at the highest concentrations
Excerpt: as §1

[8] = molecular target: T2, ERα (récepteur œstrogène alpha); experiment: as above; format: cell-based; conditions: Figure 6, C = 10 µM; even at the highest concentrations
Excerpt: as §1

[9] = molecular target: T3, AR (récepteur des androgènes); experiment: as above; format: cell-based; conditions: Figure 6, C = 10 µM; even at the highest concentrations
Excerpt: as §1

[10] = Tableau 2, same test as for compounds 1 to 7 (λ 300 nm, P 8.32 W/m^2, one hour)
[11] = Tableau 1, UV exposure λ 300 nm, P 8.32 W/m^2, one hour
[12] = read-out: IC50 (nmol), antioxidant properties

COc1cc(C=C2C(=O)OC(C)(C)OC2=O)cc(OC)c1O
λmax ([1]; Tableau 2): 405
A (t=0 min) ([2]; Tableau 2): 0,24614
Perte d'activité (%) [2, 10]: 11,43%
pIC50 ([3]; antioxidant properties, read-out: IC50 (nmol)): 8.45
capacité antioxydante [3]: remarquables

COc1ccc(C(=O)CC(=O)c2ccc(C(C)(C)C)cc2)cc1 [Avobenzone, reference compound]
λmax ([1]; Tableau 1): 350
Perte d'activité (%) [2, 11]: 0,6%
A (t=0 min) ([2]; Tableau 1): 0,36735

COc1ccc(O)c(C(C)(C)C)c1 [BHA, reference compound]
IC50 [3, 12]: 6.51 nmol

Cc1cc(C(C)(C)C)c(O)c(C(C)(C)C)c1 [BHT, reference compound]
IC50 [3, 12]: 13.1 nmol

CC1(C)OC(=O)C(=Cc2ccco2)C(=O)O1 [Composé 1, 5-(2-Furanylmethylene)-2,2-dimethyl-1,3-dioxane-4,6-dione]
λmax ([1]; Tableau 1): 361
Perte d'activité (%) [2, 11]: < 5%
Perte d'activité (%) ([2]; Tableau 1, UV exposure λ 300 nm, P 8.32 W/m^2, one hour, listed as Composé (1)): 3.5%
A (t=0 min) ([2]; Tableau 1): 0.3381
effet antagoniste sur le récepteur PXR [4]: n'empêchent pas l'activité des récepteurs envers les molécules de référence
effet antagoniste sur le récepteur ERα [5]: n'empêchent pas l'activité des récepteurs envers les molécules de référence
effet antagoniste sur le récepteur AR [6]: n'empêchent pas l'activité des récepteurs envers les molécules de référence
effet agoniste (activité du récepteur PXR) [7]: n'induisent pas une activité anormale des récepteurs
effet agoniste (activité du récepteur ERα) [8]: n'induisent pas une activité anormale des récepteurs
effet agoniste (activité du récepteur AR) [9]: n'induisent pas une activité anormale des récepteurs

CC1(C)OC(=O)C(=Cc2ccc(O)c(O)c2)C(=O)O1 [Composé 9]
λmax ([1]; Tableau 2): 398
A (t=0 min) ([2]; Tableau 2): 0,26515
Perte d'activité (%) [2, 10]: 6,37%
IC50 [3, 12]: 2.9 nmol
capacité antioxydante [3]: remarquables

CC1(C)OC(=O)C(=Cc2ccc(O)cc2)C(=O)O1 [Composé 10, 5-(4-Hydroxybenzylidene)-2,2-dimethyl-1,3-dioxane-4,6-dione]
λmax ([1]; Tableau 2): 374
A (t=0 min) ([2]; Tableau 2): 0,29431
Perte d'activité (%) [2, 10]: 3,47%
IC50 (nmol) ([3]; antioxidant properties): Pas d'effet

Cc1cc(C=C2C(=O)OC(C)(C)OC2=O)oc1C [compound 2, 5-[(4,5-Dimethyl-2-furanyl)methylene]-2,2-dimethyl-1,3-dioxane-4,6-dione]
λmax ([1]; Tableau 1): 400
Perte d'activité (%) [2, 11]: < 5%
Perte d'activité (%) ([2]; Tableau 1, UV exposure λ 300 nm, P 8.32 W/m^2, one hour, listed as Composé (2)): 4,2%
A (t=0 min) ([2]; Tableau 1): 0,37961

CCc1ccc(C=C2C(=O)OC(C)(C)OC2=O)o1 [compound 3, 5-[(5-Ethyl-2-furanyl)methylene]-2,2-dimethyl-1,3-dioxane-4,6-dione]
λmax ([1]; Tableau 1): 374
Perte d'activité (%) [2, 11]: < 5%
Perte d'activité (%) ([2]; Tableau 1, UV exposure λ 300 nm, P 8.32 W/m^2, one hour, listed as Composé (3)): 5,1%
A (t=0 min) ([2]; Tableau 1): 0,31307

CC1(C)OC(=O)C(=Cc2cc3ccccc3o2)C(=O)O1 [compound 5, 5-(2-benzofuranylmethylene)-2,2-dimethyl-1,3-dioxane-4,6-dione]
λmax ([1]; Tableau 1): 386
Perte d'activité (%) [2, 11]: 28,7%
A (t=0 min) ([2]; Tableau 1): 0,32310

CC(=O)OCc1ccc(C=C2C(=O)OC(C)(C)OC2=O)o1 [compound 6, 5-[[5-((Acetyloxy)methyl)-2-furanyl]methylene]-2,2-dimethyl-1,3-dioxane-4,6-dione]
λmax ([1]; Tableau 1): 366
Perte d'activité (%) [2, 11]: 12,0%
A (t=0 min) ([2]; Tableau 1): 0,28728

CC1(C)OC(=O)C(=Cc2ccc(C=C3C(=O)OC(C)(C)OC3=O)o2)C(=O)O1 [compound 7, 5,5'-(2,5-furandiyldimethylidyne)bis-2,2-dimethyl-1,3-dioxane-4,6-dione]
λmax ([1]; Tableau 1): 406 - 426
Perte d'activité (%) [2, 11]: 12,4%
A (t=0 min) ([2]; Tableau 1): 0,47642

CC1(C)OC(=O)C(=CC=Cc2ccco2)C(=O)O1 [compound 19, 5-[3-(2-furanyl)-2-propen-1-ylidene]-2,2-dimethyl-1,3-Dioxane-4,6-dione]
absorption UVA et lumière bleue (spectre UV-Vis) ([1]; in ethanol at 10^-5 mol/L, Figure 2): comparables à ceux obtenus avec les composés 1 à 7
